Results: PubChem BioAssay AID2060601 (Molecular Pharmacology Branch, DTP, NCI, 2025)
Several values for one entry are separate records, joined by “and”; a condition that tells them apart may be missing. Equal entries are not always repeated. One block for each compound: values may come before it.

Test system: 874868-142-R-J2-PDC complex spheroids, growth % test/control
Assay: Anticancer human tumor 874868-142-R-J2-PDC patient-derived head and neck squamous carcinoma cell line growth inhibition [CLK]
Details: for viability, T/C: stronger effect = lower value
Procedure, shortened: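 Multi-cell-type spheroids combined patient-derived tumor cells with HUVEC endothelial cells and human mesenchymal stem cells. Paired agents were dosed in half-log steps down from about clinical Cmax, or from 10 microM where Cmax was unknown.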

[1] = curve of first compound, second compound 0.0316 µM
[2] = curve of first compound, second compound 0.1 µM
[3] = curve of first compound, second compound 0.316 µM
[4] = curve of first compound, second compound 1 µM
[5] = curve of first compound, second compound 3.16 µM
[6] = curve of first compound, second compound 10 µM
[7] = second compound 0.0316 µM, first compound 0.0316 µM
[8] = second compound 0.0316 µM, first compound 0.1 µM
[9] = second compound 0.1 µM, first compound 0.0316 µM
[10] = second compound 0.1 µM, first compound 0.1 µM
[11] = second compound 0.316 µM, first compound 0.0316 µM
[12] = second compound 0.316 µM, first compound 0.1 µM
[13] = second compound 1 µM, first compound 0.0316 µM
[14] = second compound 1 µM, first compound 0.1 µM
[15] = second compound 3.16 µM, first compound 0.0316 µM
[16] = second compound 3.16 µM, first compound 0.1 µM
[17] = second compound 10 µM, first compound 0.0316 µM
[18] = second compound 10 µM, first compound 0.1 µM
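Also: spheroids exposed to the compounds for 7 days.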
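For viability, T/C in this document: 100% = DMSO vehicle control viability.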

Compound: NC(=O)C(=Cn1cnc(-c2cc(C(F)(F)F)cc(C(F)(F)F)c2)n1)c1cncnc1 + CN1CCN(c2cc(C(=O)Nc3cc4cc(-c5cnn(C)c5)ccc4cn3)ccn2)CC1
- IC50 [1]: 51.3 nM
- IC50 [2]: < 9.49 nM
- IC50 [3]: < 9.49 nM
- IC50 [4]: < 9.49 nM
- IC50 [5]: < 9.49 nM
- IC50 [6]: < 9.49 nM
- viability, T/C (second compound 0.0316 µM, first compound 0.00949 µM): 69.8%
- viability, T/C (second compound 0.0316 µM, first compound 0.03 µM): 62.5%
- viability, T/C (second compound 0.0316 µM, first compound 0.0949 µM): 35.4%
- viability, T/C (second compound 0.0316 µM, first compound 0.3 µM): 20.1%
- viability, T/C (second compound 0.0316 µM, first compound 0.949 µM): 1.73%
- viability, T/C (second compound 0.0316 µM, first compound 3 µM): 2.54%
- viability, T/C (second compound 0.1 µM, first compound 0.00949 µM): 50%
- viability, T/C (second compound 0.1 µM, first compound 0.03 µM): 44.8%
- viability, T/C (second compound 0.1 µM, first compound 0.0949 µM): 25.2%
- viability, T/C (second compound 0.1 µM, first compound 0.3 µM): 3.61%
- viability, T/C (second compound 0.1 µM, first compound 0.949 µM): 0.81%
- viability, T/C (second compound 0.1 µM, first compound 3 µM): 0.34%
- viability, T/C (second compound 0.316 µM, first compound 0.00949 µM): 14%
- viability, T/C (second compound 0.316 µM, first compound 0.03 µM): 5.04%
- viability, T/C (second compound 0.316 µM, first compound 0.0949 µM): 0.53%
- viability, T/C (second compound 0.316 µM, first compound 0.3 µM): 0.23%
- viability, T/C (second compound 0.316 µM, first compound 0.949 µM): 0.23%
- viability, T/C (second compound 0.316 µM, first compound 3 µM): 0.1%
- viability, T/C (second compound 1 µM, first compound 0.00949 µM): 0.37%
- viability, T/C (second compound 1 µM, first compound 0.03 µM): 0.25%
- viability, T/C (second compound 1 µM, first compound 0.0949 µM): 0.32%
- viability, T/C (second compound 1 µM, first compound 0.3 µM): 0.28%
- viability, T/C (second compound 1 µM, first compound 0.949 µM): 0.22%
- viability, T/C (second compound 1 µM, first compound 3 µM): 1.66%
- viability, T/C (second compound 3.16 µM, first compound 0.00949 µM): 0.39%
- viability, T/C (second compound 3.16 µM, first compound 0.03 µM): 0.31%
- viability, T/C (second compound 3.16 µM, first compound 0.0949 µM): 0.46%
- viability, T/C (second compound 3.16 µM, first compound 0.3 µM): 0.38%
- viability, T/C (second compound 3.16 µM, first compound 0.949 µM): 0.19%
- viability, T/C (second compound 3.16 µM, first compound 3 µM): 0.14%
- viability, T/C (second compound 10 µM, first compound 0.00949 µM): 0.14%
- viability, T/C (second compound 10 µM, first compound 0.03 µM): 0.14%
- viability, T/C (second compound 10 µM, first compound 0.0949 µM): 3.64%
- viability, T/C (second compound 10 µM, first compound 0.3 µM): 0.17%
- viability, T/C (second compound 10 µM, first compound 0.949 µM): 0.24%
- viability, T/C (second compound 10 µM, first compound 3 µM): 0.2%

Compound: Cn1ncnc1[C@H]1c2n[nH]c(=O)c3cc(F)cc(c23)N[C@@H]1c1ccc(F)cc1 + CN1CCN(c2cc(C(=O)Nc3cc4cc(-c5cnn(C)c5)ccc4cn3)ccn2)CC1
- IC50 [1]: > 100 nM
- IC50 [2]: 91.4 nM
- IC50 [3]: < 0.316 nM
- IC50 [4]: < 0.316 nM
- IC50 [5]: < 0.316 nM
- IC50 [6]: < 0.316 nM
- viability, T/C (second compound 0.0316 µM, first compound 0.000316 µM): 99.4%
- viability, T/C (second compound 0.0316 µM, first compound 0.001 µM): 83.8%
- viability, T/C (second compound 0.0316 µM, first compound 0.00316 µM): 80%
- viability, T/C (second compound 0.0316 µM, first compound 0.01 µM): 89.2%
- viability, T/C [7]: 62.2%
- viability, T/C [8]: 68.2%
- viability, T/C (second compound 0.1 µM, first compound 0.000316 µM): 83.9%
- viability, T/C (second compound 0.1 µM, first compound 0.001 µM): 70.3%
- viability, T/C (second compound 0.1 µM, first compound 0.00316 µM): 69.8%
- viability, T/C (second compound 0.1 µM, first compound 0.01 µM): 66.6%
- viability, T/C [9]: 43.8%
- viability, T/C [10]: 53.8%
- viability, T/C (second compound 0.316 µM, first compound 0.000316 µM): 17.1%
- viability, T/C (second compound 0.316 µM, first compound 0.001 µM): 17.7%
- viability, T/C (second compound 0.316 µM, first compound 0.00316 µM): 16.2%
- viability, T/C (second compound 0.316 µM, first compound 0.01 µM): 11.9%
- viability, T/C [11]: 18.8%
- viability, T/C [12]: 15.2%
- viability, T/C (second compound 1 µM, first compound 0.000316 µM): 0.34%
- viability, T/C (second compound 1 µM, first compound 0.001 µM): 0.36%
- viability, T/C (second compound 1 µM, first compound 0.00316 µM): 0.3%
- viability, T/C (second compound 1 µM, first compound 0.01 µM): 0.19%
- viability, T/C [13]: 0.26%
- viability, T/C [14]: 0.38%
- viability, T/C (second compound 3.16 µM, first compound 0.000316 µM): 0.15%
- viability, T/C (second compound 3.16 µM, first compound 0.001 µM): 0.17%
- viability, T/C (second compound 3.16 µM, first compound 0.00316 µM): 0.15%
- viability, T/C (second compound 3.16 µM, first compound 0.01 µM): 0.18%
- viability, T/C [15]: 0.12%
- viability, T/C [16]: 0.29%
- viability, T/C (second compound 10 µM, first compound 0.000316 µM): 0.11%
- viability, T/C (second compound 10 µM, first compound 0.001 µM): 0.2%
- viability, T/C (second compound 10 µM, first compound 0.00316 µM): 0.16%
- viability, T/C (second compound 10 µM, first compound 0.01 µM): 0.18%
- viability, T/C [17]: 0.2%
- viability, T/C [18]: 0.2%

- IC50 (curve of compound): > 10000 nM
Compound: C=CC(=O)N1CCN(c2nc(=O)n(-c3c(C)ccnc3C(C)C)c3nc(-c4c(O)cccc4F)c(F)cc23)C(C)C1 (stereo not drawn)
- viability, T/C (compound 0.0316 µM): 109% and 92.4%
- viability, T/C (compound 0.1 µM): 84.9% and 96%
- viability, T/C (compound 0.316 µM): 109% and 104%
- viability, T/C (compound 1 µM): 119% and 104%
- viability, T/C (compound 3.16 µM): 133% and 131%
- viability, T/C (compound 10 µM): 114% and 88.2%

Compound: O=c1[nH]cc(F)c(=O)[nH]1 + CN1CCN(c2cc(C(=O)Nc3cc4cc(-c5cnn(C)c5)ccc4cn3)ccn2)CC1
- IC50 [1]: 2320 nM
- IC50 [2]: 667 nM
- IC50 [3]: < 31.6 nM
- IC50 [4]: < 31.6 nM
- IC50 [5]: < 31.6 nM
- IC50 [6]: < 31.6 nM
- viability, T/C [7]: 99.7%
- viability, T/C [8]: 74.5%
- viability, T/C (second compound 0.0316 µM, first compound 0.316 µM): 83.8%
- viability, T/C (second compound 0.0316 µM, first compound 1 µM): 70.8%
- viability, T/C (second compound 0.0316 µM, first compound 3.16 µM): 41.6%
- viability, T/C (second compound 0.0316 µM, first compound 10 µM): 37%
- viability, T/C [9]: 66.7%
- viability, T/C [10]: 79%
- viability, T/C (second compound 0.1 µM, first compound 0.316 µM): 62.4%
- viability, T/C (second compound 0.1 µM, first compound 1 µM): 43.7%
- viability, T/C (second compound 0.1 µM, first compound 3.16 µM): 24.8%
- viability, T/C (second compound 0.1 µM, first compound 10 µM): 31%
- viability, T/C [11]: 18.2%
- viability, T/C [12]: 17.2%
- viability, T/C (second compound 0.316 µM, first compound 0.316 µM): 12.4%
- viability, T/C (second compound 0.316 µM, first compound 1 µM): 10.2%
- viability, T/C (second compound 0.316 µM, first compound 3.16 µM): 12.2%
- viability, T/C (second compound 0.316 µM, first compound 10 µM): 10.7%
- viability, T/C [13]: 0.31%
- viability, T/C [14]: 0.25%
- viability, T/C (second compound 1 µM, first compound 0.316 µM): 0.25%
- viability, T/C (second compound 1 µM, first compound 1 µM): 0.29%
- viability, T/C (second compound 1 µM, first compound 3.16 µM): 0.14%
- viability, T/C (second compound 1 µM, first compound 10 µM): 0.21%
- viability, T/C [15]: 0.18%
- viability, T/C [16]: 0.21%
- viability, T/C (second compound 3.16 µM, first compound 0.316 µM): 0.22%
- viability, T/C (second compound 3.16 µM, first compound 1 µM): 0.18%
- viability, T/C (second compound 3.16 µM, first compound 3.16 µM): 0.5%
- viability, T/C (second compound 3.16 µM, first compound 10 µM): 0.21%
- viability, T/C [17]: 0.08%
- viability, T/C [18]: 0.14%
- viability, T/C (second compound 10 µM, first compound 0.316 µM): 0.14%
- viability, T/C (second compound 10 µM, first compound 1 µM): 0.15%
- viability, T/C (second compound 10 µM, first compound 3.16 µM): 0.29%
- viability, T/C (second compound 10 µM, first compound 10 µM): 0.17%
